Assays:
Format in all cases: in vivo
[1] = test system: ragweed (common ragweed, Ambrosia elatior); assay: Test A preemergence; details: for Plant response rating, Ragweed: 125 g ai/ha; for Ragweed plant response rating (0 to 100 scale, 0 is no effect, 100 is complete control): 500 g ai/ha, visual injury approx. 10 d
Procedure, shortened: (§1)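 Ratings of 0 (no effect) to 100 (complete control) come from visual comparison with untreated controls roughly 10 d after treatment. Test chemicals, formulated in a non-phytotoxic solvent mixture with surfactant, were applied either as a preemergence directed soil spray on seeded soil or postemergence to one- to two-leaf plants 2 to 10 cm tall.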

Kochia (Kochia scoparia) [2] = assay: Test A preemergence; details: for Plant response rating, Kochia: 125 g ai/ha; for Kochia plant response rating (0 to 100 scale, 0 is no effect, 100 is complete control): 500 g ai/ha, visual injury approx. 10 d
Procedure, shortened: as §1

[3] = test system: giant foxtail (Setaria faberii); assay: Test A preemergence; details: for Plant response rating, Foxtail, Giant: 125 g ai/ha; for Foxtail, Giant plant response rating (0 to 100 scale, 0 is no effect, 100 is complete control): 500 g ai/ha, visual injury approx. 10 d
Procedure, shortened: as §1

[4] = test system: pigweed (Amaranthus retroflexus); assay: Test A preemergence; details: for Plant response rating, Pigweed: 125 g ai/ha; for Pigweed plant response rating (0 to 100 scale, 0 is no effect, 100 is complete control): 500 g ai/ha, visual injury approx. 10 d
[5] = test system: ryegrass, Italian (Italian ryegrass, Lolium multiflorum); assay: Test A preemergence; details: for Plant response rating, Ryegrass, Italian: 125 g ai/ha; for Ryegrass, Italian plant response rating (0 to 100 scale, 0 is no effect, 100 is complete control): 500 g ai/ha, visual injury approx. 10 d
Procedure, shortened: as §1

[6] = test system: barnyardgrass (Echinochloa crus-galli); assay: Test A preemergence; details: for Plant response rating, Barnyardgrass: 125 g ai/ha; for Barnyardgrass plant response rating (0 to 100 scale, 0 is no effect, 100 is complete control): 500 g ai/ha, visual injury approx. 10 d
Procedure, shortened: as §1

[7] = test system: ragweed (common ragweed, Ambrosia elatior); assay: Test A postemergence
Procedure, shortened: as §1

Kochia (Kochia scoparia) [8] = assay: Test A postemergence
Procedure, shortened: as §1

[9] = test system: giant foxtail (Setaria faberii); assay: Test A postemergence
Procedure, shortened: as §1

[10] = test system: wheat (Triticum aestivum); assay: Test A postemergence
Procedure, shortened: as §1

[11] = test system: pigweed (Amaranthus retroflexus); assay: Test A postemergence
Procedure, shortened: as §1

[12] = test system: ryegrass, Italian (Italian ryegrass, Lolium multiflorum); assay: Test A postemergence
Procedure, shortened: as §1

[13] = test system: barnyardgrass (Echinochloa crus-galli); assay: Test A postemergence
Procedure, shortened: as §1

[14] = test system: Galium (catchweed bedstraw, Galium aparine); assay: Test A postemergence
Procedure, shortened: as §1

corn (Zea mays) = assay: Test A postemergence
Procedure, shortened: as §1

[15] = test system: blackgrass (Alopecurus myosuroides); assay: Test A postemergence
Procedure, shortened: as §1

[16] = test system: sedge, umbrella (small-flower umbrella sedge, Cyperus difformis); assay: Test B flooded paddy test; details: Flood, 250 g ai/ha; 0 to 100 scale where 0 is no effect and 100 is complete control; 13 to 15 d
Procedure, shortened: (§2)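 Rating scale 0–100 (visual, vs untreated controls) after a 13–15 d greenhouse period; application to the flood layer, 3 cm above soil and maintained; plants at 2-leaf stage when treated.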

rice (Oryra sativa) = assay: Test B flooded paddy test; details: Flood, 250 g ai/ha; 0 to 100 scale where 0 is no effect and 100 is complete control; 13 to 15 d
Procedure, shortened: as §2

[17] = test system: ducksalad (Heteranthera limosa); assay: Test B flooded paddy test; details: Flood, 250 g ai/ha; 0 to 100 scale where 0 is no effect and 100 is complete control; 13 to 15 d
Procedure, shortened: as §2

[18] = test system: barnyardgrass (Echinochloa crus-galli); assay: Test B flooded paddy test; details: Flood, 250 g ai/ha; 0 to 100 scale where 0 is no effect and 100 is complete control; 13 to 15 d
Procedure, shortened: as §2

[19] = preemergence, 0 to 100 scale (0 no effect, 100 complete control)
[20] = 125 g ai/ha, postemergence, visual injury rating on 0 to 100 scale (0 no effect, 100 complete control), approx. 10 d
[21] = 500 g ai/ha, postemergence, 0 to 100 scale, 0 no effect, 100 complete control
[22] = Preemergence, visual injury after approximately 10 d, 0 to 100 scale where 0 is no effect and 100 is complete control
[23] = 125 g ai/ha, postemergence, visual rating after approx. 10 d, 0 to 100 scale (0 no effect, 100 complete control)
[24] = Postemergence, 500 g ai/ha, 0 to 100 scale where 0 is no effect and 100 is complete control

O=C(Nc1ccccc1F)C1C(=O)N(c2ccccc2)CC1c1cccc(C(F)(F)F)c1 (stereo not drawn) [Compound 456]
0: Plant response rating, Ragweed [1, 19] | Ragweed plant response rating (0 to 100 scale, 0 is no effect, 100 is complete control) ([1]; Preemergence) | Plant response rating, Kochia (Kochia (Kochia scoparia) [2]; [19]) | Kochia plant response rating (0 to 100 scale, 0 is no effect, 100 is complete control) (Kochia (Kochia scoparia) [2]; Preemergence) | Plant response rating, Foxtail, Giant [3, 19] | Foxtail, Giant plant response rating (0 to 100 scale, 0 is no effect, 100 is complete control) ([3]; Preemergence) | Plant response rating, Pigweed [4, 19] | Pigweed plant response rating (0 to 100 scale, 0 is no effect, 100 is complete control) ([4]; Preemergence) | Plant response rating, Ryegrass, Italian [5, 19] | Ryegrass, Italian plant response rating (0 to 100 scale, 0 is no effect, 100 is complete control) ([5]; Preemergence) | Plant response rating, Barnyardgrass [6, 19] | Barnyardgrass plant response rating (0 to 100 scale, 0 is no effect, 100 is complete control) ([6]; Preemergence) | Ragweed plant response rating [7, 20] | Plant response rating, Ragweed [7, 21] | Kochia plant response rating (Kochia (Kochia scoparia) [8]; [20]) | Plant response rating, Kochia (Kochia (Kochia scoparia) [8]; [21]) | Foxtail, Giant plant response rating [9, 20] | Plant response rating, Foxtail, Giant [9, 21] | Wheat plant response rating [10, 20] | Plant response rating, Wheat [10, 21] | Pigweed plant response rating [11, 20] | Plant response rating, Pigweed [11, 21] | Ryegrass, Italian plant response rating [12, 20] | Plant response rating, Ryegrass, Italian [12, 21] | Barnyardgrass plant response rating [13, 20] | Plant response rating, Barnyardgrass [13, 21] | Galium plant response rating [14, 20] | Plant response rating, Galium [14, 21] | Corn plant response rating (corn (Zea mays); [20]) | Plant response rating, Corn (corn (Zea mays); [21]) | Blackgrass plant response rating [15, 20] | Plant response rating, Blackgrass [15, 21] | Plant response rating, Sedge, Umbrella [16] | Plant response rating, Rice (rice (Oryra sativa)) | Plant response rating, Ducksalad [17] | Plant response rating, Barnyardgrass [18]

O=C1NCC(c2cc(F)c(F)cc2F)C1C(=O)Nc1ccccc1F (racemic) [Compound 549]
0: Plant response rating, Ragweed [1, 22] | Ragweed plant response rating (0 to 100 scale, 0 is no effect, 100 is complete control) ([1]; Preemergence) | Plant response rating, Kochia (Kochia (Kochia scoparia) [2]; [22]) | Kochia plant response rating (0 to 100 scale, 0 is no effect, 100 is complete control) (Kochia (Kochia scoparia) [2]; Preemergence) | Plant response rating, Pigweed [4, 22] | Pigweed plant response rating (0 to 100 scale, 0 is no effect, 100 is complete control) ([4]; Preemergence) | Plant response rating, Ryegrass, Italian [5, 22] | Ryegrass, Italian plant response rating (0 to 100 scale, 0 is no effect, 100 is complete control) ([5]; Preemergence) | Plant response rating, Ragweed [7, 23] | Plant response rating, Ragweed [7, 24] | Plant response rating, Kochia (Kochia (Kochia scoparia) [8]; [23]) | Plant response rating, Wheat [10, 23] | Plant response rating, Pigweed [11, 23] | Plant response rating, Pigweed [11, 24] | Plant response rating, Ryegrass, Italian [12, 23] | Plant response rating, Ryegrass, Italian [12, 24] | Plant response rating, Galium [14, 23] | Plant response rating, Galium [14, 24] | Plant response rating, Corn (corn (Zea mays); [23]) | Plant response rating, Corn (corn (Zea mays); [24]) | Plant response rating, Blackgrass [15, 23] | Plant response rating, Sedge, Umbrella [16] | Plant response rating, Rice (rice (Oryra sativa))
90: Plant response rating, Foxtail, Giant [3, 22] | Foxtail, Giant plant response rating (0 to 100 scale, 0 is no effect, 100 is complete control) ([3]; Preemergence) | Plant response rating, Foxtail, Giant [9, 24] | Plant response rating, Barnyardgrass [13, 24] | Plant response rating, Ducksalad [17]
20: Plant response rating, Kochia (Kochia (Kochia scoparia) [8]; [24]) | Plant response rating, Foxtail, Giant [9, 23] | Plant response rating, Wheat [10, 24] | Plant response rating, Blackgrass [15, 24]
80: Barnyardgrass plant response rating (0 to 100 scale, 0 is no effect, 100 is complete control) ([6]; Preemergence)
25: Plant response rating, Barnyardgrass [18]
40: Plant response rating, Barnyardgrass [6, 22] | Plant response rating, Barnyardgrass [13, 23]
